# According to patent US5043353A, “A80789 polyether antibiotic” (Eli Lilly and Company, priority 1989, dated 1991):
# Tested on: Culture A80789
# Test: Antibiotic sensitivity disc test on the producing culture
# Type: cell-based, Streptomyces hygroscopicus
# Settings: ISP No. 2 agar
# Experimental: Resistance to antibiotics was measured by padding antibiotic sensitivity discs onto the surface of seeded ISP No. 2 agar plates. Resistance was scored as (+) when no zone of inhibition was observed and as (-) when a zone of inhibition was observed.
Compound,Resistance of culture to antibiotic (disc 10 mcg),Resistance of culture to antibiotic (disc 30 mcg),also measured
CO[C@H]1/C=C/O[C@@]2(C)Oc3c(C)c(O)c4c(O)c(c(/C=N/N5CCN(C)CC5)c(O)c4c3C2=O)NC(=O)/C(C)=C\C=C\[C@H](C)[C@H](O)[C@@H](C)[C@@H](O)[C@@H](C)[C@H](OC(C)=O)[C@@H]1C [rifampin],–,–,Resistance of culture to antibiotic (disc 5 mcg): resistant
[H]/N=C(/N)N[C@H]1[C@H](O)[C@@H](O)[C@H](O[C@@H]2O[C@@H](C)[C@](O)(C=O)[C@H]2O[C@@H]2O[C@@H](CO)[C@H](O)[C@@H](O)[C@@H]2NC)[C@@H](N/C(N)=N\[H])[C@@H]1O [streptomycin],sensitive,–,–
CN(C)[C@@H]1C(=O)C(C(N)=O)=C(O)[C@@]2(O)C(=O)C3=C(O)c4c(O)cccc4[C@@](C)(O)[C@H]3C[C@@H]12 [tetracycline],–,sensitive,–
NC[C@H]1O[C@H](O[C@H]2[C@H](O)[C@@H](O[C@H]3O[C@H](CO)[C@@H](O)[C@H](N)[C@H]3O)[C@H](N)C[C@@H]2N)[C@H](N)C[C@@H]1O [tobramycin],sensitive,–,–
CN[C@H](CC(C)C)C(=O)N[C@H]1C(=O)N[C@@H](CC(N)=O)C(=O)N[C@H]2C(=O)N[C@H]3C(=O)N[C@H](C(=O)N[C@H](C(=O)O)c4cc(O)cc(O)c4-c4cc3ccc4O)[C@H](O)c3ccc(c(Cl)c3)Oc3cc2cc(c3O[C@@H]2O[C@H](CO)[C@@H](O)[C@H](O)[C@H]2O[C@H]2C[C@](C)(N)[C@H](O)[C@H](C)O2)Oc2ccc(cc2Cl)[C@H]1O [vancomycin],–,sensitive,–
gentamicin,sensitive,–,–
neomycin,–,sensitive,–
